Measurements reported in patent US5395610A, “Agents for potentiating the effects of antitumor agents and combating multiple drug resistance” (Burroughs-Wellcome Co., priority 1989, dated 1995).
Counter-ions that a name gives are not always drawn.

What was measured:
in vitro = assay type: cell-based, Chinese hamster; settings: hamster, cho auxb1 cells
[1] = In vitro cytotoxicity / potentiation of Actinomycin D in Chinese hamster ovary cells, drug resistant C5S32 (MTT); assay type: cell-based; settings: hamster, cho c5s32 cells, fraction of untreated cultures (1.00), read-out: Cytotoxicity, normalized absorbance, Drug Resistant C5S32, 0 (no Act D); for viability at 96 h, 1 µM: 1 μM potentiating agent alone; for viability at 96 h, 10 µM: 10 μM potentiating agent alone
[2] = test system: Chinese hamster ovary (CHO) cells, drug resistant C5S32; assay: as above; assay type: cell-based; settings: 96 h, fraction of Act D alone (1.00)
[3] = In vitro cytotoxicity / potentiation of Actinomycin D in human KB epidermoid carcinoma cells, wildtype KB 3-1 (MTT); assay type: cell-based; settings: human, kb 3-1 cells, fraction of untreated cultures, read-out: Cytotoxicity, normalized absorbance, Wildtype KB 3-1, 0 (no Act D); for viability at 96 h, 1 µM: 1 μM potentiating agent alone; for viability at 96 h, 10 µM: 10 μM potentiating agent alone
[4] = test system: human KB epidermoid carcinoma cells, wildtype KB 3-1; assay: as above; assay type: cell-based; settings: 96 h, fraction of Act D alone
[5] = In vitro cytotoxicity / potentiation of Actinomycin D in human KB epidermoid carcinoma cells, drug resistant KB V-1 (MTT); assay type: cell-based; settings: human, kb v-1 cells, fraction of untreated cultures, read-out: Cytotoxicity, normalized absorbance, Drug Resistant KB V-1, 0 (no Act D); for viability at 96 h, 1 µM: 1 μM potentiating agent alone; for viability at 96 h, 10 µM: 10 μM potentiating agent alone
[6] = test system: human KB epidermoid carcinoma cells, drug resistant KB V-1; assay: as above; assay type: cell-based; settings: 96 h, fraction of Act D alone
[7] = 1 μM potentiating agent + Act D 0.5 μM
[8] = 10 μM potentiating agent + Act D 0.5 μM
[9] = 1 μM potentiating agent + Act D 20 nM
[10] = 10 μM potentiating agent + Act D 20 nM

| SMILES | viability at 96 h, 1 µM (in vitro) [%] | viability at 96 h, 10 µM (in vitro) [%] | viability at 96 h, 1 µM [1] [%] | viability at 96 h, 10 µM [1] [%] | Synergism with Actinomycin D, normalized absorbance, Drug Resistant C5S32, +ACT D [2, 7] | Synergism with Actinomycin D, normalized absorbance, Drug Resistant C5S32, +ACT D [2, 8] | viability at 96 h, 1 µM [3] [%] | viability at 96 h, 10 µM [3] [%] | Synergism with Actinomycin D, normalized absorbance, Wildtype KB 3-1, +ACT D ([4]; 1 μM potentiating agent + Act D 0.1 nM) | Synergism with Actinomycin D, normalized absorbance, Wildtype KB 3-1, +ACT D ([4]; 10 μM potentiating agent + Act D 0.1 nM) | viability at 96 h, 1 µM [5] [%] | viability at 96 h, 10 µM [5] [%] | Synergism with Actinomycin D, normalized absorbance, Drug Resistant KB V-1, +ACT D [6, 9] | Synergism with Actinomycin D, normalized absorbance, Drug Resistant KB V-1, +ACT D [6, 10] |
| --- | --- | --- | --- | --- | --- | --- | --- | --- | --- | --- | --- | --- | --- | --- |
| Brc1ccc2c(c1)/C(=C\CCN1CCCC1)c1ccccc1CO2 [(G), (Z)-1-[3-(2-Bromo-6,11-dihydrodibenz [b,e]-oxepin-11-ylidene)propyl]pyrrolidine] | 100 | 100 | 54 | 15 | 0.47 | 0.10 | 87 | 74 | 0.80 | 0.87 | 86 | 70 | 0.91 | 0.35 |
| C(/CN1CCCC1)=C1\c2ccccc2COc2ccccc21 [(H), hydrochloride] | 100 | 94 | 82 | 53 | 0.95 | 0.51 | – | – | – | – | – | – | – | – |
| Brc1ccc2c(c1)/C(=C/CCN1CCCC1)c1ccccc1OC2 [(M), (Z)-1-[3-(9-Bromo-6,11-dihydrodibenz [b,e]-oxepin-11-ylidene)propyl]pyrrolidine] | 79 | 84 | 86 | 100 | 0.83 | 0.35 | 100 | 96 | – | – | 95 | 65 | 1.00 | 0.31 |
| CCN(CC)CC/C=C1\c2ccccc2COc2ccc(Br)cc21 [(N), (E) -3-(2-Bromo-6,11-dihydrodibenz [b,e]oxepin-11-ylidene)-N, N-diethylpropylamine] | 86 | 83 | 100 | 80 | 0.85 | 0.33 | – | – | – | – | – | – | – | – |
| CN(C)CC/C=C1/c2cc(Br)ccc2COc2ccc(Br)cc21 [(U), (Z)-3-(2,9-Dibromo-6,11-dihydrodibenz [b,e]-oxepin-11-ylidene)-N,N-dimethylpropylamine] | 84 | 79 | 94 | 74 | 0.93 | 0.24 | – | – | – | – | – | – | – | – |
| CN(C)CC/C=C1\c2cc(Br)ccc2COc2ccc(Br)cc21 [(V), (E)-3-(2,9-Dibromo-6,11-dihydrodibenz [b,e]-oxepin-11-ylidene)-N,N-dimethylpropylamine] | 86 | 77 | 91 | 75 | 0.87 | 0.20 | – | – | – | – | – | – | – | – |
| CN(C)CCC=C1c2ccccc2COc2ccccc21 [(W), doxepin, reference compound] | 100 | 100 | 98 | 55 | 0.86 | 0.48 | – | – | – | – | – | – | – | – |
